Numbers after ± are expanded uncertainties.
Conditions: 1825 kPa, Liquid, Pendant drop shape

| Compound | interfacial tension (383 K) | interfacial tension (403 K) | interfacial tension (423 K) | interfacial tension (443 K) |
| --- | --- | --- | --- | --- |
| CCCCCCCCCCCC [dodecane] + O | 40 ± 0.2 mN/m | 36.5 ± 0.2 mN/m | 32.9 ± 0.2 mN/m | 28.5 ± 0.2 mN/m |
| Cc1ccccc1 [toluene] + O | 28.6 ± 0.1 mN/m | 26.4 ± 0.1 mN/m | 23.8 ± 0.2 mN/m | 20.2 ± 0.2 mN/m |

Source: the NIST ThermoML archive (doi:10.1016/j.fluid.2018.07.032)
